PubChem BioAssay AID1902 (Broad Institute, 2009)
The source made the active and inactive calls.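 How the source made its calls: active means EC50 no more than a set limit of log units above the highest dose; inactive means the rest.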

These molecules were tested against S. pyogenes SKKanGAS, kanamycin survival, BacTiterGlo, 6 h (assay: SKKanGAS survival reduction under kanamycin, dose response, streptokinase promoter inhibitor project, SKKanGAS strain, luminescence, dose confirmation (AID 1902);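 further: lower survival reflects blocked streptokinase promoter driving kanamycin resistance gene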).

| SMILES | EC50 |
| --- | --- |
| O/N=C(\c1ccc(Cl)cc1Cl)c1ncc(C(F)(F)F)cc1Cl | 2.74 µM |
| Clc1cccc(Cl)c1C1Nc2cccc3cccc(c23)N1 | 8.81 µM |
| O=C(N/N=C/c1cc(Br)ccc1O)c1ccncc1 | 1.15 µM |
| Nc1nc(-c2ccccn2)nc(N)c1Cc1ccccc1F | 15.3 µM |
| Cc1ccnc(NS(=O)(=O)c2ccc(NC(=O)c3cc(-c4ccc(Br)cc4)nc4ccccc34)cc2)n1 | 3.34 µM |
| CCCCNc1c(-c2ccc(SC(C)CC)c(OC)c2)nc2ccc(C)cn12 (centres undefined) | 3.46 µM |
| N#Cc1c(-c2ccccc2)nc(SCc2cccc(C(F)(F)F)c2)[nH]c1=O | 1.97 µM |
| Cc1noc(C)c1C(=O)Nc1ccc2ccccc2c1 | > 15 µM (inactive) |
| Cc1[nH]c2ccccc2c1C(c1ccccn1)c1c(C)[nH]c2ccccc12 | 8.63 µM |
| O=S(=O)(Nc1cccc2ncccc12)c1cccs1 | 2.76 µM |
| CCC1C(=NO)C(CC)C(c2ccccc2)NC1c1ccccc1 (centres undefined) | 3.34 µM |
| Clc1ccc(-c2cc3ccccc3nc2N2CCCC2)cc1 | 5.14 µM |
| Cc1ccc(C)c(N2CCN(C(=O)CCCCCn3c(=S)[nH]c4ccc(N5CCOCC5)cc4c3=O)CC2)c1 | 7.93 µM |
| COc1ccc(Sc2ccc(NC(=O)c3ccccc3Cl)cc2C#N)cc1 | 2.51 µM |
| Cc1c(C(=O)Nc2ccc3c(c2)OCCO3)sc2nc(-c3ccccc3)cn12 | 2.52 µM |
| CC(=O)N1CCN(c2ccccc2NC(=O)c2cccs2)CC1 | > 15 µM (inactive) |
| CC1(C)N=C(N)NC(Nc2ccccc2)=N1 | 3.75 µM |
| O=C(c1ccccc1)c1cc2ccc(O)cc2oc1=O | 6.03 µM |
| C/C(=N\NC(=O)c1cc2ccccc2cc1O)c1cccs1 | 12.5 µM |
| Fc1ccc(-[n+]2nc(Nc3ccccc3)sc2-c2c3ccccc3cc3ccccc23)cc1 | 5.95 µM |
| O=C(O)CCCN1C(=O)/C(=C\c2ccc(-c3nc4ccccc4s3)o2)SC1=S | 4.89 µM |
| Cc1ccc(-c2csc(NC(=O)c3ccc([N+](=O)[O-])o3)n2)cc1 | 3.42 µM |
| CCOC(=O)c1c(NC(=O)COC(=O)c2ccc(C)s2)sc2c1CC(C)(C)NC2(C)C | 3.7 µM |
| CCn1cc(Cl)c(C(=O)N2N=C(c3ccc4ccccc4c3)CC2c2ccccc2O)n1 (centres undefined) | 6.13 µM |
| O=C(NC(c1ccc(Cl)cc1)c1cc(Cl)c2cccnc2c1O)c1cccnc1 (centres undefined) | 0.278 µM |
| Oc1ccc(CN2CCN(c3ccccc3)CC2)c2cccnc12 | 3.76 µM |
| CC/C(=C/c1ccccc1)c1cccc2[nH]c3c(OC)cccc3c12 | 2.49 µM |

| SMILES | EC50 |
| --- | --- |
| CCC(=O)Nc1nc2ccccc2n1Cc1ccccc1Cl | 8.22 µM |
| COc1ccccc1-c1nnc(NC(=O)CCS(=O)(=O)c2ccccc2)o1 | > 15 µM (inactive) |
| C/C(=N\NC(=O)c1ccc(Cl)c(Cl)c1)c1ccccn1 | 0.063 µM |
| O=[N+]([O-])c1ccc(/C=N/Nc2nc(N3CCCCCC3)nc(N3CCCCCC3)n2)o1 | 0.618 µM |
| CC1=NN(c2ccccc2)C(=O)/C1=C/c1c(O)n(-c2ccc(F)c(Cl)c2)[nH]c1=O | 3.61 µM |
| O=C(CNC(=O)c1ccco1)NCc1nc2ccccc2[nH]1 | > 15 µM (inactive) |
| O=C(O)CSc1nnc(Cn2c(=O)sc3ccccc32)n1-c1cccc(Cl)c1 | > 15 µM (inactive) |
| Cc1c(N/N=C(\C#N)C(=O)c2ccc(Cl)cc2)c(=O)n(-c2ccccc2)n1C | 0.36 µM |
| Cc1ccc2c(c1)C(=O)CC1(CCC(C(C)(C)C)CC1)O2 (centres undefined) | 3.01 µM |
| C/C(Cl)=C\Cn1c(O)c(N=NC(N)=S)c2cc(Br)ccc21 | 1.36 µM |
| N=C1/C(=C\c2ccc(-c3cccc(C(=O)O)c3)o2)C(=O)N=C2SC=C(c3ccccc3)N12 | 1.2 µM |
| CCc1cccc2sc(N3CCN(C(=O)c4ccc([N+](=O)[O-])o4)CC3)nc12 | 4.73 µM |
| Cc1ccsc1C(=O)N(c1nc2ccccc2s1)c1c(C)cccc1C | 4 µM |
| CC[C@H]1OC(=O)C[C@@H](O)[C@H](C)[C@@H](O[C@@H]2O[C@H](C)C[C@H](N(C)C)[C@H]2O)[C@@H](CC=O)C[C@@H](C)C(=O)C=C[C@]2(C)O[C@H]2[C@@H]1C | < 0.06 µM |
| N=c1c(-c2nc3ccccc3[nH]2)cc(C(=O)c2cccs2)nn1-c1ccccc1 | 1.89 µM |
| Cc1noc(C)c1CSc1nc2ccccc2nc1NS(=O)(=O)c1ccc(Cl)cc1 | 3.13 µM |
| Clc1ccc(SCc2cc(Cl)nc(-c3ccccc3)n2)cc1 | > 15 µM (inactive) |
| CCC/C=C(\CCC)C(NS(=O)(=O)c1ccc(C(F)(F)F)cc1)c1ccccc1 (centres undefined) | 3.48 µM |
| CCN(c1ccc(C)cc1C)S(=O)(=O)c1nnc(NC(=O)c2ccco2)s1 | 4.2 µM |
| C/C(=N\NS(=O)(=O)c1ccc(C)cc1)c1ccc(C)o1 | > 15 µM (inactive) |
| O=C(/C=C/c1ccccc1)NC(NC(=S)Nc1ccc(Cl)cc1)C(Cl)(Cl)Cl (centres undefined) | 4.16 µM |
| O=C(Nc1cccc(Cl)c1N1CCCC1)c1ccc(Br)o1 | 5.82 µM |
| CCC1(C)Cc2ccccc2-c2c1c(=O)n(Cc1ccccc1)c1nnnn21 (centres undefined) | 1.51 µM |
| CC(Oc1cccc(Cl)c1)C(=O)Nc1ccccc1N1CCCCC1 (centres undefined) | 3.04 µM |
| CCN1CCN(C(c2ccc(C(F)(F)F)cc2)c2ccc3cccnc3c2O)CC1 (centres undefined) | 1.82 µM |
| CC(C)C1OC2c3cccc4cccc(c34)C2N1c1ccccc1 (centres undefined) | 2.57 µM |
| CCOc1ccc(-c2nc3n(c(=O)c2C#N)CCCS3)cc1 | 7.33 µM |
